Paper PMC5428509, “Irreversible inhibition of BTK kinase by a novel highly selective inhibitor CHMFL-BTK-11 suppresses inflammatory response in rheumatoid arthritis model” (Scientific Reports, 2017)

Legend:
Assay in all cases: biochemical
Set-up in all cases: KinomeScan competition binding panel (DiscoveRx), percent of control at 1 uM
Details in all cases: read-out: Percent Control
BMPR2 = BMPR2 (Homo sapiens, UniProt Q13873)
Procedure, shortened: (§1)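 Selectivity profiled across 456 kinases/mutants by KinomeScan binding technology.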

BRK = target: T1, BRK (Homo sapiens, UniProt Q13882)
T1 construct: gene PTK6
Procedure, shortened: as §1

CAMK2G = CAMK2G (Homo sapiens, UniProt Q13555)
Procedure, shortened: as §1

CTK = target: T2, CTK (Homo sapiens, UniProt P42679)
T2 construct: gene MATK
Procedure, shortened: as §1

DMPK2 = target: T3, DMPK2 (Homo sapiens, UniProt Q6DT37)
T3 construct: gene CDC42BPG
Procedure, shortened: as §1

ERBB4 = ERBB4 (Homo sapiens, UniProt Q15303)
Sequence of ERBB4 (Q15303 whole entry): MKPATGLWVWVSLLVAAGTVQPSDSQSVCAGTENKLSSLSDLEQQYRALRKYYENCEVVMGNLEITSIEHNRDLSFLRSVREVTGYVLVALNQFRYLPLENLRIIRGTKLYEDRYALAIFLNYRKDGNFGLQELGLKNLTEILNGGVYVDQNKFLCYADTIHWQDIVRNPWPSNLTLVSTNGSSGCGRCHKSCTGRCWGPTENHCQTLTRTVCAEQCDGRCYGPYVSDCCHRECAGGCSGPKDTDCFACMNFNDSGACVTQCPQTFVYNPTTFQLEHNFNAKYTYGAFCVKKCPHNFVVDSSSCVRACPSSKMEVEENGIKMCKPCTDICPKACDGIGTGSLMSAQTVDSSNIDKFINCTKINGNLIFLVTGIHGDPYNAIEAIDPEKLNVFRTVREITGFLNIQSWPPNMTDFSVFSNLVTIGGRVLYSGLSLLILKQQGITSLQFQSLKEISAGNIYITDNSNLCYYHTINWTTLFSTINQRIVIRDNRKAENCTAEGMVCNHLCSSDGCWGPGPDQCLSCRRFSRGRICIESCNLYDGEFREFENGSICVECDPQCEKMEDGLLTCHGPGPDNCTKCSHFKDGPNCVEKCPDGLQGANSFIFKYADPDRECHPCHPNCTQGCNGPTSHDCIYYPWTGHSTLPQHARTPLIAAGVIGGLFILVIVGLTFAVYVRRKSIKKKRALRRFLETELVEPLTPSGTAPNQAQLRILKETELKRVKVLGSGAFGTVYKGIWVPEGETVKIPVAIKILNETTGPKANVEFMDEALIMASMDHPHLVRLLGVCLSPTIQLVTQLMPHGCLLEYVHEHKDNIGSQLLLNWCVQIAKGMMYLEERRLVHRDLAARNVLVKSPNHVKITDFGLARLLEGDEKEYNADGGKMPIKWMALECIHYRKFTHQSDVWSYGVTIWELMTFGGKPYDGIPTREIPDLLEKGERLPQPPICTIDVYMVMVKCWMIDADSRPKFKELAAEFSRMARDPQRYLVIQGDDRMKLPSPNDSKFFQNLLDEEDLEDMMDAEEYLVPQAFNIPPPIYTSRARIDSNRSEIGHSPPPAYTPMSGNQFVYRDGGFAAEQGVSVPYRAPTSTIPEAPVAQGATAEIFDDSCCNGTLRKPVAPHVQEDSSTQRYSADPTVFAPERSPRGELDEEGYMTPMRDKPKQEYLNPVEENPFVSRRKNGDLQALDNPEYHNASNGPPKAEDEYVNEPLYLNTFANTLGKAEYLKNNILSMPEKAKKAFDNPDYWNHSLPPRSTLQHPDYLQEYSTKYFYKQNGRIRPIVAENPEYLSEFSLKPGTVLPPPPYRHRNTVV
Procedure, shortened: as §1

ERK8 = target: T4, ERK8 (Homo sapiens, UniProt Q8TD08)
T4 construct: gene MAPK15
Procedure, shortened: as §1

FYN = FYN (Homo sapiens, UniProt P06241)
Procedure, shortened: as §1

GRK4 = GRK4 (Homo sapiens, UniProt P32298)
Procedure, shortened: as §1

KIT(L576P) = KIT(L576P) (Homo sapiens, UniProt P10721, L576P)
Procedure, shortened: as §1

KIT(V559D,V654A) = KIT(V559D,V654A) (Homo sapiens, UniProt P10721, V559D/V654A)
Procedure, shortened: as §1

LATS1 = LATS1 (Homo sapiens, UniProt O95835)
Procedure, shortened: as §1

LCK = LCK (Homo sapiens, UniProt P06239)
Procedure, shortened: as §1

MAPKAPK2 = MAPKAPK2 (Homo sapiens, UniProt P49137)
Procedure, shortened: as §1

MET(M1250T) = MET(M1250T) (Homo sapiens, UniProt P08581, M1250T)
Sequence of MET(M1250T) (P08581 whole entry M1250T): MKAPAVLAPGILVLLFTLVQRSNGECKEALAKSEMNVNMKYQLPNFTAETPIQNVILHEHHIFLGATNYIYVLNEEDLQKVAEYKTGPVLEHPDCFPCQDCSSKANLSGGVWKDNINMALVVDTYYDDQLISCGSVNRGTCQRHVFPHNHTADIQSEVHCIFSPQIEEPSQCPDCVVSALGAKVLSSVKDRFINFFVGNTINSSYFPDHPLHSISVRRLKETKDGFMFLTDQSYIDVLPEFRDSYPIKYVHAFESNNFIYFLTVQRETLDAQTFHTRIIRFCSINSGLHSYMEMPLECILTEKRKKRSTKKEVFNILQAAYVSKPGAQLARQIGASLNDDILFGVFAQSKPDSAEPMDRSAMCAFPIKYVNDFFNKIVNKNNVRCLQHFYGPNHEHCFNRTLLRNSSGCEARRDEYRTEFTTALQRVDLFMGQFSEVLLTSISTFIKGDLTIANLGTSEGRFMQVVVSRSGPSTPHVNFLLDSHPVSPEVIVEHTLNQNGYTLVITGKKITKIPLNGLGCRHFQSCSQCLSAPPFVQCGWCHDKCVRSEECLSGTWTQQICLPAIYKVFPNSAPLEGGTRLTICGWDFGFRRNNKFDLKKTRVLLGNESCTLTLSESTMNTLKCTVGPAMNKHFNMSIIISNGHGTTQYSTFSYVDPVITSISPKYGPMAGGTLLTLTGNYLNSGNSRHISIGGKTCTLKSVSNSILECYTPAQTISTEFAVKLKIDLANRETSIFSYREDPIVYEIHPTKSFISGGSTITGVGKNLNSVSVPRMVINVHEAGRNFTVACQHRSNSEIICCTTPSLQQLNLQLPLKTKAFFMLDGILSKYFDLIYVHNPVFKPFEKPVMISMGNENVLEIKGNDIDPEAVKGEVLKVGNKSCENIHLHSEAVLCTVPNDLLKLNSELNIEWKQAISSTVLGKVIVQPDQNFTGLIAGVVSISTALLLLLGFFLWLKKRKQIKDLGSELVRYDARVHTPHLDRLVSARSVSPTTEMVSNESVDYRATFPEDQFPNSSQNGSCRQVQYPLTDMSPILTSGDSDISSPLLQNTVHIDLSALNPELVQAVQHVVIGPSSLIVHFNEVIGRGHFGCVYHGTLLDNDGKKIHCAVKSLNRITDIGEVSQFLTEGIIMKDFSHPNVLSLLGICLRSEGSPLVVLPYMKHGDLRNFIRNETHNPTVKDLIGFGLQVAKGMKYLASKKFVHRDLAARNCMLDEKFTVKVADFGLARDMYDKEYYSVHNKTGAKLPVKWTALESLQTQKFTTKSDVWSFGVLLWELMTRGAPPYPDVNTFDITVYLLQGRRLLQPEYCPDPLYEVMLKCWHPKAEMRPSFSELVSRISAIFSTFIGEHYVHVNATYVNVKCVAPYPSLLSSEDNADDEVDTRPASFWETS
Procedure, shortened: as §1

MTOR = MTOR (Homo sapiens, UniProt P42345)
Procedure, shortened: as §1

NEK7 = NEK7 (Homo sapiens, UniProt Q8TDX7)
Sequence of NEK7 (Q8TDX7 whole entry): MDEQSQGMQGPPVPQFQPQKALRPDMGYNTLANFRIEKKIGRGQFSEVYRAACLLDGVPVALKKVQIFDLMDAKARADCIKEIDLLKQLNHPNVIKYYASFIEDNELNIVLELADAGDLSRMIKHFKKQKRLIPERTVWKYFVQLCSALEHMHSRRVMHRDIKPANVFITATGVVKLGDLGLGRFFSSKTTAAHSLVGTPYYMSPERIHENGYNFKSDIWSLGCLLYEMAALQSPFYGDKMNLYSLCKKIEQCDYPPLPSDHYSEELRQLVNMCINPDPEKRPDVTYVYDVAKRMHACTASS
Procedure, shortened: as §1

NIK = target: T5, NIK (Homo sapiens, UniProt Q99558)
T5 construct: gene MAP3K14
Procedure, shortened: as §1

PIK3CA(H1047Y) = PIK3CA(H1047Y) (Homo sapiens, UniProt P42336, H1047Y)
Procedure, shortened: as §1

PKN1 = PKN1 (Homo sapiens, UniProt Q16512)
Sequence of PKN1 (Q16512 whole entry): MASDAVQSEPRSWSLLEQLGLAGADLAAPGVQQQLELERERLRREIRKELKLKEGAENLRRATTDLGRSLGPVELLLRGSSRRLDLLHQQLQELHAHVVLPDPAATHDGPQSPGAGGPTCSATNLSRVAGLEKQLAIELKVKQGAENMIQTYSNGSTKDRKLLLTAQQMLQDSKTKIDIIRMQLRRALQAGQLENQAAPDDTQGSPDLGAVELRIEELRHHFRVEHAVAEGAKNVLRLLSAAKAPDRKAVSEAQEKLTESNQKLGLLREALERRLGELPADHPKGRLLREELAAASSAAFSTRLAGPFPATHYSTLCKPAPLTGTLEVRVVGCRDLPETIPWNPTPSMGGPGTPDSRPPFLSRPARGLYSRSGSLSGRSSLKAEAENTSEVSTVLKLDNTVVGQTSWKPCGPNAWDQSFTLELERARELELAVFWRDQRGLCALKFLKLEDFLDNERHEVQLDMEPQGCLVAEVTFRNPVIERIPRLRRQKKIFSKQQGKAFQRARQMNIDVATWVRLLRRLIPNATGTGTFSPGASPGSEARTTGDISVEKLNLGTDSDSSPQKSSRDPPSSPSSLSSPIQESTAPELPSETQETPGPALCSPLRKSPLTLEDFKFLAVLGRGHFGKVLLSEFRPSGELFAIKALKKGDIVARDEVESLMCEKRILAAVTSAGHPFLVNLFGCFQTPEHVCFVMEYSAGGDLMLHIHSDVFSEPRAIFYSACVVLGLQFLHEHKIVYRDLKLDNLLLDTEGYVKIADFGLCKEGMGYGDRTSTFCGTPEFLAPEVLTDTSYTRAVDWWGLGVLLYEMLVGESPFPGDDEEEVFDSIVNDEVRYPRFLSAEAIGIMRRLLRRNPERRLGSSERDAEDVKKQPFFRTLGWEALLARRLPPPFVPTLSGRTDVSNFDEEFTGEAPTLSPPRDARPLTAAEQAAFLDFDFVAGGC
Procedure, shortened: as §1

PRKCE = PRKCE (Homo sapiens, UniProt Q02156)
Procedure, shortened: as §1

RET(V804M) = RET(V804M) (Homo sapiens, UniProt P07949, V804M)
Sequence of RET(V804M) (P07949 whole entry V804M): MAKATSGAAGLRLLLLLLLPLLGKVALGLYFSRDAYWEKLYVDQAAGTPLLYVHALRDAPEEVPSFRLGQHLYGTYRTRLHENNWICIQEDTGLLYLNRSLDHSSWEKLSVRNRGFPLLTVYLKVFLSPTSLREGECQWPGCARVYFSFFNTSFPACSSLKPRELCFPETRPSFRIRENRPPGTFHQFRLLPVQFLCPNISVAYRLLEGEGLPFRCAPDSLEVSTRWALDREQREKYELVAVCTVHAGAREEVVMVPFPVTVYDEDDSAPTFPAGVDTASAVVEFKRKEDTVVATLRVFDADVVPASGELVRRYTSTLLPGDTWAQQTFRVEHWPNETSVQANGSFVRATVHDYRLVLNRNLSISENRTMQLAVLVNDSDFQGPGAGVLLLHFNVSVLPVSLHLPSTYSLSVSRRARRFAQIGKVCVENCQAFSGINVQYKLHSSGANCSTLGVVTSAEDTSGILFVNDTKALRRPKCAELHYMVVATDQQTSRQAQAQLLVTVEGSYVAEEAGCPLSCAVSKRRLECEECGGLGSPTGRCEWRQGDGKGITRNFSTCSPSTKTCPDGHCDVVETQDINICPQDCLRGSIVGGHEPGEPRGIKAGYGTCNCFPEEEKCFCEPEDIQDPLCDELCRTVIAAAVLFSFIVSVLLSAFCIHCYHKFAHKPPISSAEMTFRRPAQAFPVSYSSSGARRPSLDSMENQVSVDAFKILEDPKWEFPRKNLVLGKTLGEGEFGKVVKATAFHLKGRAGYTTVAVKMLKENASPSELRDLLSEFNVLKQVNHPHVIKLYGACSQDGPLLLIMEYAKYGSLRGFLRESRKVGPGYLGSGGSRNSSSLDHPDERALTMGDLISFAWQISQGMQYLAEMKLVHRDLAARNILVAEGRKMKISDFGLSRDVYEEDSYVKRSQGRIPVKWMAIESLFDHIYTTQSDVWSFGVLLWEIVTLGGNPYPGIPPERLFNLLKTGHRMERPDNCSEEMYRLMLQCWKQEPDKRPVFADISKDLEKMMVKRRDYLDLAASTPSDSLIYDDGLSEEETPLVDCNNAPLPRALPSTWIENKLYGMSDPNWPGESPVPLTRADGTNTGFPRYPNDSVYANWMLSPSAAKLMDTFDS
Procedure, shortened: as §1

[1] = target: T6, RPS6KA4(Kin.Dom.1-N-terminal) (Homo sapiens, UniProt O75676)
T6 construct: Kin.Dom.1-N-terminal
Procedure, shortened: as §1

STK39 = STK39 (Homo sapiens, UniProt Q9UEW8)
Procedure, shortened: as §1

p38-gamma = target: T7, p38-gamma (Homo sapiens, UniProt P53778)
T7 construct: gene MAPK12
Procedure, shortened: as §1

For C=CC(=O)Nc1cc(-n2c(=O)ccc3cnc4ccc(-n5cccn5)cc4c32)ccc1C [CHMFL-BTK-11], the remaining binding at 1 µM (BMPR2) was 100%, the remaining binding at 1 µM (BRK) was 100% and the remaining binding at 1 µM (CAMK2G) was 73%. For the same molecule, the remaining binding at 1 µM (CTK) was 65%, the remaining binding at 1 µM (DMPK2) was 99% and the remaining binding at 1 µM (ERBB4) was 91%. For the same molecule, the remaining binding at 1 µM (ERK8) was 99%, the remaining binding at 1 µM (FYN) was 99% and the remaining binding at 1 µM (GRK4) was 94%. For the same molecule, the remaining binding at 1 µM (KIT(L576P)) was 100%, the remaining binding at 1 µM (KIT(V559D,V654A)) was 100% and the remaining binding at 1 µM (LATS1) was 99%. It also gave a remaining binding at 1 µM (LCK) of 100%, a remaining binding at 1 µM (MAPKAPK2) of 99% and a remaining binding at 1 µM (MET(M1250T)) of 100%. For the same molecule, the remaining binding at 1 µM (MTOR) was 62%, the remaining binding at 1 µM (NEK7) was 100% and the remaining binding at 1 µM (NIK) was 100%. For the same molecule, the remaining binding at 1 µM (PIK3CA(H1047Y)) was 82%, the remaining binding at 1 µM (PKN1) was 100% and the remaining binding at 1 µM (PRKCE) was 97%. The remaining binding at 1 µM (RET(V804M)) was 100%, the remaining binding at 1 µM [1] was 100% and the remaining binding at 1 µM (STK39) was 72%. It also gave a remaining binding at 1 µM (p38-gamma) of 79%.
